Measured values as given in ChEMBL document CHEMBL4507263, “Data for DCP probe BAY-474” (2021).
Active and inactive are the calls of the source. No cut-off for these calls is given here.

How the values were obtained:
[1] = test system: Receptor-type tyrosine-protein kinase FLT3 (Homo sapiens), P36888 [D835Y]; conditions: Compound concentration 1000.0 nM
[2] = target: MAP kinase-activated protein kinase 2 (Homo sapiens) (UniProt P49137); conditions: Compound concentration 1000.0 nM
[3] = target: MAP/microtubule affinity-regulating kinase 3 (Homo sapiens) (UniProt P27448); conditions: Compound concentration 1000.0 nM
[4] = target: Serine/threonine-protein kinase RIO1 (Homo sapiens) (UniProt Q9BRS2); conditions: Compound concentration 1000.0 nM
[5] = target: Mitogen-activated protein kinase kinase kinase 7 (Homo sapiens) (UniProt O43318); conditions: Compound concentration 1000.0 nM
[6] = test system: Hs746T; assay: Cell proliferation with Hs746T cells; type: functional; conditions: Homo sapiens
[7] = target: Calcium/calmodulin-dependent protein kinase type 1 (Homo sapiens) (UniProt Q14012); assay: CaMKI (h) Millipore kinase activity assay; conditions: Compound concentration 1.0 uM
[8] = target: Ephrin type-A receptor 8 (Homo sapiens) (UniProt P29322); assay: EphA8 (h) Millipore kinase activity assay; conditions: Compound concentration 1.0 uM
[9] = target: RAC-gamma serine/threonine-protein kinase (Homo sapiens) (UniProt Q9Y243); assay: PKBgamma (h) Millipore kinase activity assay; conditions: Compound concentration 1.0 uM
[10] = target: Tyrosine-protein kinase receptor TYRO3 (Homo sapiens) (UniProt Q06418); assay: Rse (h) Millipore kinase activity assay; conditions: Compound concentration 1.0 uM
[11] = target: Delta-type opioid receptor (Homo sapiens) (UniProt P41143); conditions: Compound concentration 10.0 uM
Chain of Delta-type opioid receptor (Homo sapiens) (P41143 whole entry): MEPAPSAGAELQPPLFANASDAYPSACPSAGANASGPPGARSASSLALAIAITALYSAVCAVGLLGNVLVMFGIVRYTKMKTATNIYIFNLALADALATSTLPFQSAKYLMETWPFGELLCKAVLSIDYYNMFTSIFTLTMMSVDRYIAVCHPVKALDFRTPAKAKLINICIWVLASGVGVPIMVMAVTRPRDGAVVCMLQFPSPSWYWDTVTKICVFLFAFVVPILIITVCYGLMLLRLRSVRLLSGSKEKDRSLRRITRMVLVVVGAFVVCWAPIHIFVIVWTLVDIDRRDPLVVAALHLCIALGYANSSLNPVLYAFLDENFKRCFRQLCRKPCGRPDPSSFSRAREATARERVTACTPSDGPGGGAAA

Chain of Tyrosine-protein kinase receptor TYRO3 (Homo sapiens) (Q06418 whole entry): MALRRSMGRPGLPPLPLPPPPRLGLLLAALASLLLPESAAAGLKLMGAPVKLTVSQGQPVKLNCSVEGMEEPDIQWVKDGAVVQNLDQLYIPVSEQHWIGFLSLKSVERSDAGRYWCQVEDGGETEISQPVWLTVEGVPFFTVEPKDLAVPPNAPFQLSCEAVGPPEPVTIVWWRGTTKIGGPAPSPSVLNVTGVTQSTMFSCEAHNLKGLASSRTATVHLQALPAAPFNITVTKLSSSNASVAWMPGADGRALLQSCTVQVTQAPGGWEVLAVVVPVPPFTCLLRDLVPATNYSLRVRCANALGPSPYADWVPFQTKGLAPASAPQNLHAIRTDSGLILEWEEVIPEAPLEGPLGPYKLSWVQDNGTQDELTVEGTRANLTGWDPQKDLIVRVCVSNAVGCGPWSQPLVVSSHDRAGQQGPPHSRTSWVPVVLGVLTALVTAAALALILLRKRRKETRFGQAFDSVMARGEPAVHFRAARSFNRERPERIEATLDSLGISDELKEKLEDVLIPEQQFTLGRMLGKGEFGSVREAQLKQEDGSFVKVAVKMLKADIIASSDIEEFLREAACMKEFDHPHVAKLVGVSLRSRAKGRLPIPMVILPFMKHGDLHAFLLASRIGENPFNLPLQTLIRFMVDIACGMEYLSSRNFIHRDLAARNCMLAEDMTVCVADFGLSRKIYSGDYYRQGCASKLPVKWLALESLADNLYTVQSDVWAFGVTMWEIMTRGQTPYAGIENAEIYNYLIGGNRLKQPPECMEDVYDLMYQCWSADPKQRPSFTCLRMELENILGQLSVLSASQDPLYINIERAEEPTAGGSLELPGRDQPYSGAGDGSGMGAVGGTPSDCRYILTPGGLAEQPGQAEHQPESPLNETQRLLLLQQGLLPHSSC
Chain of Calcium/calmodulin-dependent protein kinase type 1 (Homo sapiens) (Q14012 whole entry, looked up): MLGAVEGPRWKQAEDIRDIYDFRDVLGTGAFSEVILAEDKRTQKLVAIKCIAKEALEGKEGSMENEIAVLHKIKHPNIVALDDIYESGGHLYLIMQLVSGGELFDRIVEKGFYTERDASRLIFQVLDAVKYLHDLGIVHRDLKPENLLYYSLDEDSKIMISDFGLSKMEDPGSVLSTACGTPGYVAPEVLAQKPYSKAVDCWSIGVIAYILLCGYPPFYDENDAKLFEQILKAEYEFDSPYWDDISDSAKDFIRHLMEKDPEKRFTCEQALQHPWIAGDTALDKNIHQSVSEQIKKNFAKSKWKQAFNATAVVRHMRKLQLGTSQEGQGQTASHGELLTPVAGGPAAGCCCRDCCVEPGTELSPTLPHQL
Chain of MAP/microtubule affinity-regulating kinase 3 (Homo sapiens) (P27448 whole entry, looked up): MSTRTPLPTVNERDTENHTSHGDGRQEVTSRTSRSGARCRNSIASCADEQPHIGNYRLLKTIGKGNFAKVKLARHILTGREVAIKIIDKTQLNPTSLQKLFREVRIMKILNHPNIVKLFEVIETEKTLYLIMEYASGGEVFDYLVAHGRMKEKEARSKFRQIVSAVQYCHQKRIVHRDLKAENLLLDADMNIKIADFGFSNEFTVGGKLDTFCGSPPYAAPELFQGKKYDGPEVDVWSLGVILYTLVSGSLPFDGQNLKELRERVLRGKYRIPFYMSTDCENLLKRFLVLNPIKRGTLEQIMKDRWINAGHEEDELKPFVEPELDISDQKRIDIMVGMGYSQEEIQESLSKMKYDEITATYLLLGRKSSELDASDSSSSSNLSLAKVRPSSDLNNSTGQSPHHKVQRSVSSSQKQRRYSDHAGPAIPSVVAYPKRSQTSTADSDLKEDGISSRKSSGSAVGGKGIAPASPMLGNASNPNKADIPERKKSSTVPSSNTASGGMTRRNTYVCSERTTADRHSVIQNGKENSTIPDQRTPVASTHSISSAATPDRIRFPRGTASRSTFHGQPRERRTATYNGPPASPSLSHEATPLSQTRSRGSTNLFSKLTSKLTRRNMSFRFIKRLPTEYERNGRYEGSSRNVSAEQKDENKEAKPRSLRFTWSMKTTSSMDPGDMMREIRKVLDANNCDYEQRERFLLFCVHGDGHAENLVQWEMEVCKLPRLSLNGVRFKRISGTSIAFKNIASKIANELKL
Chain of Mitogen-activated protein kinase kinase kinase 7 (Homo sapiens) (O43318 whole entry): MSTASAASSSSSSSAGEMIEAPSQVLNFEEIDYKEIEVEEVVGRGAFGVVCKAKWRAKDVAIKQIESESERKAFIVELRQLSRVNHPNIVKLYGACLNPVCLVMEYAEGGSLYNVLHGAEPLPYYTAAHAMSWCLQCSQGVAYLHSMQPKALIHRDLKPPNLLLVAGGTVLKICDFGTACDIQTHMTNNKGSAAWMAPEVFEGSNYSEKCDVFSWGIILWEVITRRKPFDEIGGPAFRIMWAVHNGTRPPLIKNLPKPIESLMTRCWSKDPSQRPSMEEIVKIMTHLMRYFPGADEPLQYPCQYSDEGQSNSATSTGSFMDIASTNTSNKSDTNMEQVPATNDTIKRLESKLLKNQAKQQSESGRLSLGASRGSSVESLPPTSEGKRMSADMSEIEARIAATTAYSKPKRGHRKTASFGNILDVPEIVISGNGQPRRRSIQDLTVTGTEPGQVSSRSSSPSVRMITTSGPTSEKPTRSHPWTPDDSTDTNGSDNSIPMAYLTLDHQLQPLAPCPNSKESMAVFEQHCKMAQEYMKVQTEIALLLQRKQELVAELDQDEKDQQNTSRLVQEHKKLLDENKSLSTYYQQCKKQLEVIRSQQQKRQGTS
Chain of MAP kinase-activated protein kinase 2 (Homo sapiens) (P49137 whole entry, looked up): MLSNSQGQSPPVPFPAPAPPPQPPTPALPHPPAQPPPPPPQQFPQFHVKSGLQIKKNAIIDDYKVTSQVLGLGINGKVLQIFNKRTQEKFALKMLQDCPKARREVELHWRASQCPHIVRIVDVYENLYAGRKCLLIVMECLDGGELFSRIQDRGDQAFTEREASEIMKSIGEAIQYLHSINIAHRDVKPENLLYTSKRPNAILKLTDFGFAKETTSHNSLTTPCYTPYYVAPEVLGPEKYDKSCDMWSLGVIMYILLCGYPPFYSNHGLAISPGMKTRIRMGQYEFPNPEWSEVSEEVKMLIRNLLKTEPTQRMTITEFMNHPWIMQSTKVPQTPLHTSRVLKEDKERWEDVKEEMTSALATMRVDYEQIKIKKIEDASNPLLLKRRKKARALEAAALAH
Chain of Ephrin type-A receptor 8 (Homo sapiens) (P29322 whole entry): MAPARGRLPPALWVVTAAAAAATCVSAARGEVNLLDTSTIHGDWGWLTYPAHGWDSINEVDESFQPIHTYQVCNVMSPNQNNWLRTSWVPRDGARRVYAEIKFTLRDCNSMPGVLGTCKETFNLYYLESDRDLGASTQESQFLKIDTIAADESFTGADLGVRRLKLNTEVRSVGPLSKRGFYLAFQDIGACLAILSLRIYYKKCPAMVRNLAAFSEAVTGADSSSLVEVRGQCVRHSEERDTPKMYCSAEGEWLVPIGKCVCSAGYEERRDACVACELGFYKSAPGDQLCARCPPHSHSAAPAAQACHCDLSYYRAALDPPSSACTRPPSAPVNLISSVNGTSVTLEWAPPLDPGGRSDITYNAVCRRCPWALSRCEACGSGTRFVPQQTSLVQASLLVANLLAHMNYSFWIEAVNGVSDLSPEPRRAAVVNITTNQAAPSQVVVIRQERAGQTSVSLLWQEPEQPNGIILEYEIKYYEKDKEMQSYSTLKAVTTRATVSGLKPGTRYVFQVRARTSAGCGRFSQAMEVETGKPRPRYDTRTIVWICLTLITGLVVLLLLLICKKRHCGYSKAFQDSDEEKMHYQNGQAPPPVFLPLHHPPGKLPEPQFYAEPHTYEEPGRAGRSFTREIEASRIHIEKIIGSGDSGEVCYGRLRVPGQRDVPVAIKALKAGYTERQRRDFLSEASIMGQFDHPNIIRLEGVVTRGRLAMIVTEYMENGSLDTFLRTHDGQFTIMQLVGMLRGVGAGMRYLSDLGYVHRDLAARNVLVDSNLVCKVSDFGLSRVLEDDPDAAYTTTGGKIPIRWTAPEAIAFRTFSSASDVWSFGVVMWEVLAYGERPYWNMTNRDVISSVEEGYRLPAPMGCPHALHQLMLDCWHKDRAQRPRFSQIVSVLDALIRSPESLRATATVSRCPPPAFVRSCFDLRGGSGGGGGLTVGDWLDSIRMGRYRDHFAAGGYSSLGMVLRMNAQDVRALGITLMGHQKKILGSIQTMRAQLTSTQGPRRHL
Chain of RAC-gamma serine/threonine-protein kinase (Homo sapiens) (Q9Y243 whole entry): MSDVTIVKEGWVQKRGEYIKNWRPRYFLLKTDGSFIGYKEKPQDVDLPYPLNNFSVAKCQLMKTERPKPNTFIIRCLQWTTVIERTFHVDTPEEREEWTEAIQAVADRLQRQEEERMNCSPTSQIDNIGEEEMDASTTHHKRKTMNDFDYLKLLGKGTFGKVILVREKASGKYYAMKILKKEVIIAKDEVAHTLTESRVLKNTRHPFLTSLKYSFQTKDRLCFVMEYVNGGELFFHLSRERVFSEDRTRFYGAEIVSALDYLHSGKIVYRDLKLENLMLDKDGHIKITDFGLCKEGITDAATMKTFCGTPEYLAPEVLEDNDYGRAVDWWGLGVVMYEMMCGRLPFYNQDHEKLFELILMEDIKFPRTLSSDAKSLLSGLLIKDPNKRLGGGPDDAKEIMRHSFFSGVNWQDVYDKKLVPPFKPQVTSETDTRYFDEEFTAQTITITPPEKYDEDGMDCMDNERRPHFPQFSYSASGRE

Compound | residual activity [1] [%] | residual activity [2] [%] | residual activity [3] [%] | residual activity [4] [%] | residual activity [5] [%] | IC90 [6] | inhibition [7] [%] | inhibition [8] [%] | inhibition [9] [%] | inhibition [10] [%] | inhibition [11] [%]
CC1=C(C#N)[C@@H](c2ccc3[nH]nc(C)c3c2)C(C#N)=C(c2ccc(Cl)cc2)N1 [BAY-827] | 93.5 | 100 | 100 | 100 | 100 |  |  |  |  |  | 
CC1=C(C#N)C(c2ccc3[nH]nc(C)c3c2)C(C#N)=C(C)N1 [BAY-474] |  |  |  |  |  | 0.056 µM (active) | -8 | -1 | -4 | 28 | 9
